ChEMBL document CHEMBL1129908, “ECD peptides inhibit in vitro fertilization in mice” (Bioorg Med Chem Lett, 1997)
Where a SMILES comes first, the peptide text is derived from it.

Organism: Mus musculus
Test: Tested for inhibition of sperm-egg fusion in in vitro mouse fertilization assays
Format: functional

In the case of `CC(C)C[C@H](NC(=O)[C@H](CCCN=C(N)N)NC(=O)[C@@H](N)CS)C(=O)N[C@@H](C)C(=O)N[C@@H](CCC(N)=O)C(=O)N[C@@H](CC(=O)O)C(=O)N[C@@H](CCC(=O)O)C(=O)N[C@@H](C)C(=O)N[C@@H](CC(=O)O)C(=O)N[C@H](C(=O)N[C@H](C(=O)N[C@@H](CCC(=O)O)C(=O)N[C@@H](Cc1ccc(O)cc1)C(=O)N[C@@H](CS)C(=O)O)[C@@H](C)O)C(C)C` (H-CRLAQDEADVTEYC-OH), the IC50 is reported as 250 µM.
